These compounds were tested on IFNα-Induced STAT Phosphorylation in Human Whole Blood (assay: IFNα-Induced STAT Phosphorylation in Human Whole Blood). Conditions: 1 h incubation with compound, 1000 U/mL recombinant human IFNα A/D for 15 min, pSTAT5 (pY694) median fluorescence intensity in CD3 positive population, read-out: hWB IC50.
Format: cell-based
Description: IFNα-Induced STAT Phosphorylation in Human Whole Blood
After an hour long incubation with compound, human whole blood (drawn with either EDTA or ACD-A as anti-coagulant) was stimulated with 1000 U/mL recombinant human IFNα A/D (R&D Systems 11200-2) for 15 min. The stimulation was stopped by adding Fix/Lyse buffer (BD 558049). Cells were stained with a CD3 FITC antibody (BD 555916), washed, and permeabilized on ice using Perm III buffer (BD 558050). […] The amount of pSTAT5 expression was quantitated by median fluorescence intensity after gating on the CD3 positive population.
IFNα-Induced STAT Phosphorylation in Human Whole Blood Inhibition Data

Compound | IC50
[2H]C([2H])([2H])NC(=O)c1nnc(NC(=O)C2CC2)cc1Nc1cccc(-c2cnc(C(=O)N3CCOCC3)cn2)c1OC [Example 38, 6-(cyclopropanecarboxamido)-4-((2-methoxy-3-(5-(morpholine-4-carbonyl)pyrazin-2-yl)phenyl)amino)-N-(methyl-d3)pyridazine-3-carboxamide] | 44 nM
[2H]C([2H])([2H])NC(=O)c1nnc(NC(=O)C2CC2)cc1Nc1cccc(-c2cnc(N3CCN(C)CC3)cn2)c1OC [Example 58, 6-(cyclopropanecarboxamido)-4-((2-methoxy-3-(5-(4-methylpiperazin-1-yl)pyrazin-2-yl)phenyl)amino)-N-(methyl-d3)pyridazine-3-carboxamide] | 267 nM
[2H]C([2H])([2H])NC(=O)c1nnc(NC(=O)C2CC2)cc1Nc1cccc(-c2ncc(C#N)cn2)c1OC [Example 2, 4-((3-(5-cyanopyrimidin-2-yl)-2-methoxyphenyl)amino)-6-(cyclopropanecarboxamido)-N-(methyl-d3)pyridazine-3-carboxamide] | 426 nM
[2H]C([2H])([2H])NC(=O)c1nnc(Nc2cnn(C)n2)cc1Nc1cccc(-c2ncc(F)cn2)c1OC [Example 90, 4-((3-(5-fluoropyrimidin-2-yl)-2-methoxyphenyl)amino)-N-(methyl-d3)-6-((2-methyl-2H-1,2,3-triazol-4-yl)amino)pyridazine-3-carboxamide] | 170 nM
[2H]C([2H])([2H])NC(=O)c1nnc(Nc2cc(C(C)(C)O)ccn2)cc1Nc1cccc(-c2ncc(F)cn2)c1OC [Example 102, 4-((3-(5-fluoropyrimidin-2-yl)-2-methoxyphenyl)amino)-6-((4-(2-hydroxypropan-2-yl)pyridin-2-yl)amino)-N-(methyl-d3)pyridazine-3-carboxamide] | 212 nM
[2H]C([2H])([2H])NC(=O)c1nnc(NC(=O)C2CC2)cc1Nc1cccc(-c2cnc(C3(O)COC3)cn2)c1OC [Example 33, 6-(cyclopropanecarboxamido)-4-((3-(5-(3-hydroxyoxetan-3-yl)pyrazin-2-yl)-2-methoxyphenyl)amino)-N-(methyl-d3)pyridazine-3-carboxamide] | 43 nM
[2H]C([2H])([2H])NC(=O)c1nnc(Nc2ccc(C#N)nn2)cc1Nc1cccc(-c2ncc(F)cn2)c1OC [Example 95, 6-((6-cyanopyridazin-3-yl)amino)-4-((3-(5-fluoropyrimidin-2-yl)-2-methoxyphenyl)amino)-N-(methyl-d3)pyridazine-3-carboxamide] | 182 nM
[2H]C([2H])([2H])NC(=O)c1nnc(NC(=O)C2CCC2)cc1Nc1cccc(-c2ncccn2)c1OC [Example 4, 6-(cyclobutanecarboxamido)-4-((2-methoxy-3-(pyrimidin-2-yl)phenyl)amino)-N-(methyl-d3)pyridazine-3-carboxamide] | 348 nM
[2H]C([2H])([2H])NC(=O)c1nnc(Nc2cc(C(C)(C)O)n(C)n2)cc1Nc1cccc(-c2ncc(F)cn2)c1OC [Example 82, 4-((3-(5-fluoropyrimidin-2-yl)-2-methoxyphenyl)amino)-6-((5-(2-hydroxypropan-2-yl)-1-methyl-1H-pyrazol-3-yl)amino)-N-(methyl-d3)pyridazine-3-carboxamide] | 49 nM
[2H]C([2H])([2H])NC(=O)c1nnc(NC(=O)C2CC2)cc1Nc1cccc(-c2ncc3ncn(C)c3n2)c1OC [Example 1, 6-(Cyclopropanecarboxamido)-4-((2-methoxy-3-(9-methyl-9H-purin-2-yl)phenyl)amino)-N-(methyl-d3)pyridazine-3-carboxamide] | 254 nM
[2H]C([2H])([2H])NC(=O)c1nnc(NC(=O)C2CC2)cc1Nc1cccc(-c2ncc(N3CCOCC3)cn2)c1OC [Example 13, 6-(cyclopropanecarboxamido)-4-((2-methoxy-3-(5-morpholinopyrimidin-2-yl)phenyl)amino)-N-(methyl-d3)pyridazine-3-carboxamide] | 95 nM
[2H]C([2H])([2H])NC(=O)c1nnc(Nc2ccc(OC)nn2)cc1Nc1cccc(-c2ncccn2)c1OC [Example 96, 4-((2-methoxy-3-(pyrimidin-2-yl)phenyl)amino)-6-((6-methoxypyridazin-3-yl)amino)-N-(methyl-d3)pyridazine-3-carboxamide] | 96 nM
[2H]C([2H])([2H])NC(=O)c1nnc(NC(=O)C2CC2)cc1Nc1cc(F)cc(-c2ccc(C(=O)N(C)C)nn2)c1OC [Example 42, 6-(cyclopropanecarboxamido)-4-((3-(6-(dimethylcarbamoyl)pyridazin-3-yl)-5-fluoro-2-methoxyphenyl)amino)-N-(methyl-d3)pyridazine-3-carboxamide] | 56 nM
[2H]C([2H])([2H])NC(=O)c1nnc(NC(=O)C2CC2)cc1Nc1cccc(-c2ncc(C(=O)N3CCCC3)cn2)c1OC [Example 47, 6-(cyclopropanecarboxamido)-4-((2-methoxy-3-(5-(pyrrolidine-1-carbonyl)pyrimidin-2-yl)phenyl)amino)-N-(methyl-d3)pyridazine-3-carboxamide] | 126 nM
[2H]C([2H])([2H])NC(=O)c1nnc(Nc2cc3n(n2)CCN(C)C3=O)cc1Nc1cccc(-c2ncccn2)c1OC [Example 108, 4-((2-Methoxy-3-(pyrimidin-2-yl)phenyl)amino)-N-(methyl-d3)-6-((5-methyl-4-oxo-4,5,6,7-tetrahydropyrazolo[1,5-a]pyrazin-2-yl)amino)pyridazine-3-carboxamide] | 137 nM
[2H]C([2H])([2H])NC(=O)c1nnc(Nc2ccc(C(F)(F)F)nn2)cc1Nc1cccc(-c2ncccn2)c1OC [Example 98, 4-((2-methoxy-3-(pyrimidin-2-yl)phenyl)amino)-N-(methyl-d3)-6-((6-(trifluoromethyl)pyridazin-3-yl)amino)pyridazine-3-carboxamide] | 112 nM
[2H]C([2H])([2H])NC(=O)c1nnc(Nc2cc(C#N)n(C)n2)cc1Nc1cccc(-c2ncccn2)c1OC [Example 80, 6-((5-cyano-1-methyl-1H-pyrazol-3-yl)amino)-4-((2-methoxy-3-(pyrimidin-2-yl)phenyl)amino)-N-(methyl-d3)pyridazine-3-carboxamide] | 80 nM
[2H]C([2H])([2H])NC(=O)c1nnc(NC(=O)C2CC2)cc1Nc1cccc(-c2ncc(C3CCOC3)cn2)c1OC (centres unmarked) [Example 55, 6-(Cyclopropanecarboxamido)-4-((2-methoxy-3-(5-(tetrahydrofuran-3-yl)pyrimidin-2-yl)phenyl)amino)-N-(methyl-d3)pyridazine-3-carboxamide] | 47 nM
[2H]C([2H])([2H])NC(=O)c1cnc(Nc2cc(C)n(C)n2)cc1Nc1cccc(-c2ncc(F)cn2)c1OC [Example 63, 6-((1,5-dimethyl-1H-pyrazol-3-yl)amino)-4-((3-(5-fluoropyrimidin-2-yl)-2-methoxyphenyl)amino)-N-(methyl-d3)nicotinamide] | 49 nM
[2H]C([2H])([2H])NC(=O)c1cnc(Nc2cc(=O)n(C)cn2)cc1Nc1cccc(-c2ncc(F)cn2)c1OC [Example 77, 4-((3-(5-fluoropyrimidin-2-yl)-2-methoxyphenyl)amino)-N-(methyl-d3)-6-((1-methyl-6-oxo-1,6-dihydropyrimidin-4-yl)amino)nicotinamide] | 228 nM
